Measured values reported in ChEMBL document CHEMBL4507261, “Data for DCP probe A-192621” (2021).

Assays:
[1] = biological target: Dual specificity tyrosine-phosphorylation-regulated kinase 1B (Homo sapiens) (UniProt Q9Y463); settings: Compound concentration 1000.0 nM
[2] = biological target: Serine/threonine-protein kinase ULK2 (Homo sapiens) (UniProt Q8IYT8); settings: Compound concentration 1000.0 nM
[3] = biological target: Ephrin type-B receptor 3 (Homo sapiens) (UniProt P54753); settings: Compound concentration 1000.0 nM
[4] = biological target: Cyclin-dependent kinase 11B (Homo sapiens) (UniProt P21127); settings: Compound concentration 1000.0 nM
[5] = biological target: Tyrosine-protein kinase FRK (Homo sapiens) (UniProt P42685); settings: Compound concentration 1000.0 nM
[6] = biological target: Serine/threonine-protein kinase DCLK3 (Homo sapiens) (UniProt Q9C098); settings: Compound concentration 1000.0 nM
[7] = biological target: Epidermal growth factor receptor (Homo sapiens) (UniProt P00533); settings: Compound concentration 1000.0 nM
[8] = system: Receptor-type tyrosine-protein kinase FLT3 (Homo sapiens), P36888 [R834Q]; settings: Compound concentration 1000.0 nM
[9] = biological target: Aurora kinase A (Homo sapiens) (UniProt O14965); settings: Compound concentration 1000.0 nM
[10] = biological target: Serine/threonine-protein kinase N2 (Homo sapiens) (UniProt Q16513); settings: Compound concentration 1000.0 nM
[11] = biological target: Mitogen-activated protein kinase 4 (Homo sapiens) (UniProt P31152); settings: Compound concentration 1000.0 nM
[12] = biological target: cGMP-inhibited 3',5'-cyclic phosphodiesterase 3A (Homo sapiens) (UniProt Q14432); experiment: PDE3A (h) Eurofins-Cerep enzyme and uptake assay; settings: Compound concentration 10.0 uM
[13] = biological target: Death-associated protein kinase 3 (Homo sapiens) (UniProt O43293); settings: Compound concentration 1000.0 nM
[14] = biological target: RAF proto-oncogene serine/threonine-protein kinase (Homo sapiens) (UniProt P04049); settings: Compound concentration 1000.0 nM
[15] = biological target: Mitogen-activated protein kinase kinase kinase 9 (Homo sapiens) (UniProt P80192); settings: Compound concentration 1000.0 nM
[16] = biological target: Macrophage-stimulating protein receptor (Homo sapiens) (UniProt Q04912); settings: Compound concentration 1000.0 nM
[17] = biological target: RAC-gamma serine/threonine-protein kinase (Homo sapiens) (UniProt Q9Y243); settings: Compound concentration 1000.0 nM
[18] = biological target: Ribosomal protein S6 kinase alpha-4 (Homo sapiens) (UniProt O75676); settings: Compound concentration 1000.0 nM
[19] = biological target: Cyclin-dependent kinase 14 (Homo sapiens) (UniProt O94921); settings: Compound concentration 1000.0 nM
[20] = biological target: STE20/SPS1-related proline-alanine-rich protein kinase (Homo sapiens) (UniProt Q9UEW8); settings: Compound concentration 1000.0 nM
[21] = biological target: Delta-type opioid receptor (Homo sapiens) (UniProt P41143); experiment: delta (DOP) (h) Eurofins-Cerep binding assay; set-up: ligand concentration 0.5 nM; settings: filed as agonist, Compound concentration 10.0 uM
[22] = biological target: Tyrosine-protein kinase ZAP-70 (Homo sapiens) (UniProt P43403); settings: Compound concentration 1000.0 nM
[23] = system: Proto-oncogene tyrosine-protein kinase receptor Ret (Homo sapiens), P07949 [V804L]; settings: Compound concentration 1000.0 nM
[24] = system: Epidermal growth factor receptor (Homo sapiens), P00533 [UNDEFINED MUTATION]; settings: Compound concentration 1000.0 nM
[25] = biological target: Serine/threonine-protein kinase Nek10 (Homo sapiens) (UniProt Q6ZWH5); settings: Compound concentration 1000.0 nM
[26] = biological target: Phosphatidylinositol 4,5-bisphosphate 3-kinase catalytic subunit gamma isoform (Homo sapiens) (UniProt P48736); settings: Compound concentration 1000.0 nM
[27] = biological target: Interleukin-1 receptor-associated kinase 4 (Homo sapiens) (UniProt Q9NWZ3); settings: Compound concentration 1000.0 nM
[28] = system: Mast/stem cell growth factor receptor Kit (Homo sapiens), P10721 [V559D]; settings: Compound concentration 1000.0 nM
[29] = biological target: Prostaglandin G/H synthase 2 (Homo sapiens) (UniProt P35354); experiment: COX2(h) Eurofins-Cerep enzyme and uptake assay; settings: Compound concentration 10.0 uM
[30] = biological target: SRSF protein kinase 2 (Homo sapiens) (UniProt P78362); settings: Compound concentration 1000.0 nM
[31] = system: Serine/threonine-protein kinase B-raf (Homo sapiens), P15056 [V600E]; settings: Compound concentration 1000.0 nM
[32] = biological target: Casein kinase I isoform alpha-like (Homo sapiens) (UniProt Q8N752); settings: Compound concentration 1000.0 nM
[33] = biological target: Cyclin-dependent kinase 15 (Homo sapiens) (UniProt Q96Q40); settings: Compound concentration 1000.0 nM
[34] = biological target: Serine/threonine-protein kinase PAK 2 (Homo sapiens) (UniProt Q13177); settings: Compound concentration 1000.0 nM
[35] = biological target: Serine/threonine-protein kinase OSR1 (Homo sapiens) (UniProt O95747); settings: Compound concentration 1000.0 nM
[36] = biological target: Ribosomal protein S6 kinase alpha-3 (Homo sapiens) (UniProt P51812); settings: Compound concentration 1000.0 nM
[37] = biological target: Death-associated protein kinase 1 (Homo sapiens) (UniProt P53355); settings: Compound concentration 1000.0 nM
[38] = biological target: Serine/threonine-protein kinase Nek3 (Homo sapiens) (UniProt P51956); settings: Compound concentration 1000.0 nM
[39] = biological target: Homeodomain-interacting protein kinase 4 (Homo sapiens) (UniProt Q8NE63); settings: Compound concentration 1000.0 nM
[40] = biological target: Ribosomal protein S6 kinase alpha-2 (Homo sapiens) (UniProt Q15349); settings: Compound concentration 1000.0 nM
[41] = biological target: Substance-P receptor (Homo sapiens) (UniProt P25103); experiment: NK1 (h) Eurofins-Cerep binding assay; set-up: ligand concentration 0.05 nM; settings: filed as agonist, Compound concentration 10.0 uM
[42] = biological target: Vascular endothelial growth factor receptor 3 (Homo sapiens) (UniProt P35916); settings: Compound concentration 1000.0 nM
[43] = system: Epidermal growth factor receptor (Homo sapiens), P00533 [T790M]; settings: Compound concentration 1000.0 nM
[44] = biological target: Cyclin-dependent kinase 7 (Homo sapiens) (UniProt P50613); settings: Compound concentration 1000.0 nM
[45] = biological target: cGMP-dependent protein kinase 2 (Homo sapiens) (UniProt Q13237); settings: Compound concentration 1000.0 nM

cGMP-inhibited 3',5'-cyclic phosphodiesterase 3A (Homo sapiens), sequence (Q14432 whole entry): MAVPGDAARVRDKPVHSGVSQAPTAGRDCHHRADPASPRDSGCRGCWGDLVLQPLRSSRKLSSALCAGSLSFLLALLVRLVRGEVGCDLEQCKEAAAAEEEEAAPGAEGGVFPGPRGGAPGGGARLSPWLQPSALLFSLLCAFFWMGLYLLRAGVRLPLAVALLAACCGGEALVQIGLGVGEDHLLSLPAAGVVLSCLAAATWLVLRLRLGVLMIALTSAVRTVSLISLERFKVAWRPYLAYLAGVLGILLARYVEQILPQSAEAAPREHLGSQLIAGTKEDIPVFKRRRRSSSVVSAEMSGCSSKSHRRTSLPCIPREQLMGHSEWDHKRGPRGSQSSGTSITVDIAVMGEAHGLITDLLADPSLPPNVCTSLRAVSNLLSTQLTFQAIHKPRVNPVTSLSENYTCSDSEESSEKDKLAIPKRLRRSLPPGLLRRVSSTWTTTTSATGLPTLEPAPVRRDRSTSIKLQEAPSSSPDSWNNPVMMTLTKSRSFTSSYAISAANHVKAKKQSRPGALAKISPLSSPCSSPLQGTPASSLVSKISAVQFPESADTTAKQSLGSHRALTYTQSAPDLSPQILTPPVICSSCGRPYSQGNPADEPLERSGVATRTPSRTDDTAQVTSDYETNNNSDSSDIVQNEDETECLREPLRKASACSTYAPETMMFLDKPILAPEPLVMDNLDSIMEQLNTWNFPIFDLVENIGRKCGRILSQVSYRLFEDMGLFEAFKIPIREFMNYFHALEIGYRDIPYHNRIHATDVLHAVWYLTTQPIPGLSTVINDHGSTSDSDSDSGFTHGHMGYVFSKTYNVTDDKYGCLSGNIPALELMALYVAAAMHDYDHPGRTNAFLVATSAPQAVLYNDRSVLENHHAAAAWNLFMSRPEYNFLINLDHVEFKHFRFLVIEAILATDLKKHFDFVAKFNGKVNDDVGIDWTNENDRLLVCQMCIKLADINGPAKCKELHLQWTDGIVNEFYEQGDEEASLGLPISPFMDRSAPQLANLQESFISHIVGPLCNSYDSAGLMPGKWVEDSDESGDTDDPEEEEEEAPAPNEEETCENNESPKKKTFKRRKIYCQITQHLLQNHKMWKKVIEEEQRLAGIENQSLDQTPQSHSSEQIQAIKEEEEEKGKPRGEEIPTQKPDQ
Interleukin-1 receptor-associated kinase 4 (Homo sapiens), sequence (Q9NWZ3 whole entry): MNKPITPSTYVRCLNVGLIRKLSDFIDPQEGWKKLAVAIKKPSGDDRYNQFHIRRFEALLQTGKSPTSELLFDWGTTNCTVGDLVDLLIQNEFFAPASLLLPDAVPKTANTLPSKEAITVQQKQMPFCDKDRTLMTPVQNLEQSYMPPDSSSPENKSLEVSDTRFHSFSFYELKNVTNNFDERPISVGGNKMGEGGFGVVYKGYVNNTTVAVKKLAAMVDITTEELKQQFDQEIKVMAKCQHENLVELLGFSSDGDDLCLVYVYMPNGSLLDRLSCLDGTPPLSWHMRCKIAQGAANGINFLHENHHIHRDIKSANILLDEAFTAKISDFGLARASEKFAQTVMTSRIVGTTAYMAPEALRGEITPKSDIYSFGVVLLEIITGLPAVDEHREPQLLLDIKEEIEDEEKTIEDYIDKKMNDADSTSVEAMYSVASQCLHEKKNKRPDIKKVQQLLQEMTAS
Serine/threonine-protein kinase PAK 2 (Homo sapiens), sequence (Q13177 whole entry): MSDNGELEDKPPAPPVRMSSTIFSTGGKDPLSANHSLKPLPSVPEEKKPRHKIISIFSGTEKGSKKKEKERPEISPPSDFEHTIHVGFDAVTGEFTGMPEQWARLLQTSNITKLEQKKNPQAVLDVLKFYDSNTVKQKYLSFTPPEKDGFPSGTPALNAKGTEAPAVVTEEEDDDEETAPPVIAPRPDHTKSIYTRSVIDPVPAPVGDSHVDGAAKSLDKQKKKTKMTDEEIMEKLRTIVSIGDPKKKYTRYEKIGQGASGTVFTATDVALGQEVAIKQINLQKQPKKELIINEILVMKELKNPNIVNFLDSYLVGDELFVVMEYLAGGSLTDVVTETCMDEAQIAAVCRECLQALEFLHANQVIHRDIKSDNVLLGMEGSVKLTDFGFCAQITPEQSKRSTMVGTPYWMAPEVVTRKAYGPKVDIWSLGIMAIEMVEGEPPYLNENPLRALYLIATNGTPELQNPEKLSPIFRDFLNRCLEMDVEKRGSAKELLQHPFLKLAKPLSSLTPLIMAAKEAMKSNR
Delta-type opioid receptor (Homo sapiens), sequence (P41143 whole entry): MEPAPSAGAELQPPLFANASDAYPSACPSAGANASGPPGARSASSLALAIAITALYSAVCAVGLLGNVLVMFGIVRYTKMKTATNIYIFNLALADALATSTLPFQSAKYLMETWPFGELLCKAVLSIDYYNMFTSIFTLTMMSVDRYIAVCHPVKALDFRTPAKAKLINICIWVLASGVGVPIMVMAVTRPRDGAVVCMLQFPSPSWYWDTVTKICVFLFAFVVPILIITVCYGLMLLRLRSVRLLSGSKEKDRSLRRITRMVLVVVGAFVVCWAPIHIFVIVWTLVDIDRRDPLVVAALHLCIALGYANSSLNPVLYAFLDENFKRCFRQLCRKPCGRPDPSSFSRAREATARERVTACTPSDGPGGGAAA
Cyclin-dependent kinase 7 (Homo sapiens), sequence (P50613 whole entry): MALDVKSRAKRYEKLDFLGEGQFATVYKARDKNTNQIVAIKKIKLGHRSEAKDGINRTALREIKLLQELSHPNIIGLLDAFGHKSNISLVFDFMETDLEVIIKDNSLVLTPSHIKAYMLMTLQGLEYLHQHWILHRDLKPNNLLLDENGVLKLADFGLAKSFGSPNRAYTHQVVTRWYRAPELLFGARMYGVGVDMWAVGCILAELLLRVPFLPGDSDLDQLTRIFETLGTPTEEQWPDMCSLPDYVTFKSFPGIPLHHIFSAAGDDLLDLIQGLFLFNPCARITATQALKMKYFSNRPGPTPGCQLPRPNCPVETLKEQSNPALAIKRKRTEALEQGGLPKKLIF
Ribosomal protein S6 kinase alpha-4 (Homo sapiens), sequence (O75676 whole entry, looked up): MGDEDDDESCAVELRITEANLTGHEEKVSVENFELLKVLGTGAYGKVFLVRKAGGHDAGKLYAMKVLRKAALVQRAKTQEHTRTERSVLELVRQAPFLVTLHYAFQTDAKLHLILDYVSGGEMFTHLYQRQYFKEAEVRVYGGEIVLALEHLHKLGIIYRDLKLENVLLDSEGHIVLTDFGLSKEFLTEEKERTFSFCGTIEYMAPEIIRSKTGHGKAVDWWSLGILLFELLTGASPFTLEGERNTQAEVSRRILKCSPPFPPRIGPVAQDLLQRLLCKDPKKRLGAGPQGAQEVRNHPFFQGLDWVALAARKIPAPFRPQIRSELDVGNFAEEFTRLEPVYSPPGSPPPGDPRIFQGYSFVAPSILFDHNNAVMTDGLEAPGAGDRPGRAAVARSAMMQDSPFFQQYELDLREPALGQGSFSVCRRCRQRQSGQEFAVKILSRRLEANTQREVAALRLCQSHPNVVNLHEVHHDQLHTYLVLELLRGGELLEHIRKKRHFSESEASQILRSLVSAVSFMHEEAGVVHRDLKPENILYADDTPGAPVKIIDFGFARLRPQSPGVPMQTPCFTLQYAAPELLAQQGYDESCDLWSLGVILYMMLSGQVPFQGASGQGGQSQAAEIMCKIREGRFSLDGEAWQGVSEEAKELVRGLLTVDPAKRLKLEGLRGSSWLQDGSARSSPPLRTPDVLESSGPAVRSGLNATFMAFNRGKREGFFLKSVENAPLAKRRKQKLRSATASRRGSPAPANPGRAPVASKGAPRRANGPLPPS
Tyrosine-protein kinase ZAP-70 (Homo sapiens), sequence (P43403 whole entry): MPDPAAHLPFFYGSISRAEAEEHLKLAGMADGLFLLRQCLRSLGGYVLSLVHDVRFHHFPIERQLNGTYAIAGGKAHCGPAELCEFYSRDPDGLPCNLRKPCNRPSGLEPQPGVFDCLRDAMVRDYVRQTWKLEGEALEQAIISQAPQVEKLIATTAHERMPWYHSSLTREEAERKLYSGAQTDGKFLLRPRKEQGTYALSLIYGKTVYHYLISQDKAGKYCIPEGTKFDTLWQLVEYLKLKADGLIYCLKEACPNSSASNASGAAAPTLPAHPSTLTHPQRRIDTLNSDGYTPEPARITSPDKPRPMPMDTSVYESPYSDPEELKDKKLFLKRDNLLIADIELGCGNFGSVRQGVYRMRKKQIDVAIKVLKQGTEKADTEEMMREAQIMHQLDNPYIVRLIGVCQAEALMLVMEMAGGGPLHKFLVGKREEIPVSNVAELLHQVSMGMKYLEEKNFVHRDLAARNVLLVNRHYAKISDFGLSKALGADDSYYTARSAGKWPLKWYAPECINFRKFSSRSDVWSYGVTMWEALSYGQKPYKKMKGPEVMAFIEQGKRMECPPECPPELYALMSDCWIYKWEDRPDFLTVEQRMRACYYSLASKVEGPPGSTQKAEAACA
Mitogen-activated protein kinase 4 (Homo sapiens), sequence (P31152 whole entry): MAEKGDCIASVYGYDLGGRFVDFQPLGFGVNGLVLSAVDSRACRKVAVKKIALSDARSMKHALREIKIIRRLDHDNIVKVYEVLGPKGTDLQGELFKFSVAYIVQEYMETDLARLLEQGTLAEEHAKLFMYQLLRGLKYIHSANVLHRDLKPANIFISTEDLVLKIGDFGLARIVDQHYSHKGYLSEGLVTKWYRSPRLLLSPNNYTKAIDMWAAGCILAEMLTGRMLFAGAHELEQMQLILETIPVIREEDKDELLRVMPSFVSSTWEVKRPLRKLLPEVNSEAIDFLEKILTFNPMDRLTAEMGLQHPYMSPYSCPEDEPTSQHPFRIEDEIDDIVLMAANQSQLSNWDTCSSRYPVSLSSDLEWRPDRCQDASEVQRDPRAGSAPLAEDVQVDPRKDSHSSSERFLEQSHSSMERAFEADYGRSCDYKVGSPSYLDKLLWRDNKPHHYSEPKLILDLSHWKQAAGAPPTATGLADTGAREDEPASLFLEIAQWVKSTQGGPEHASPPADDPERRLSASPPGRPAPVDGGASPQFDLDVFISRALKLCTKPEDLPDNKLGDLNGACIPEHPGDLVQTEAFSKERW

Compound CCCOc1ccc([C@@H]2[C@@H](C(=O)O)[C@H](c3ccc4c(c3)OCO4)CN2CC(=O)Nc2c(CC)cccc2CC)cc1 [A-1806262] has a residual activity [1] of 99%, a residual activity [2] of 76% and a residual activity [3] of 96%. It also gave a residual activity [4] of 94%, a residual activity [5] of 89% and a residual activity [6] of 100%. It also gave a residual activity [7] of 87%, a residual activity [8] of 100% and a residual activity [9] of 94%. For the same compound, the residual activity [10] was 100%, the residual activity [11] was 95% and the % Inhibition of Control Values (Mean n=2) [12] was 34.5%. It also gave a residual activity [13] of 79%, a residual activity [14] of 100% and a residual activity [15] of 93%. It also gave a residual activity [16] of 91%, a residual activity [17] of 100% and a residual activity [18] of 90%. For the same compound, the residual activity [19] was 92%, the residual activity [20] was 78% and the % Inhibition of Control Specific Binding (Mean n=2) [21] was 23.5%. It also gave a residual activity [22] of 94%, a residual activity [23] of 97% and a residual activity [24] of 100%. For the same compound, the residual activity [25] was 96%, the residual activity [26] was 73% and the residual activity [27] was 100%. The residual activity [28] was 93%, the % Inhibition of Control Values (Mean n=2) [29] was 34% and the residual activity [30] was 100%. The residual activity [31] was 98%, the residual activity [32] was 94% and the residual activity [33] was 93%. For the same compound, the residual activity [34] was 100%, the residual activity [35] was 79% and the residual activity [36] was 76%. It also gave a residual activity [37] of 83%, a residual activity [38] of 100% and a residual activity [39] of 65%. It also gave a residual activity [40] of 100%, a % Inhibition of Control Specific Binding (Mean n=2) [41] of 32.2% and a residual activity [42] of 100%. The residual activity [43] was 93%, the residual activity [44] was 86% and the residual activity [45] was 83%.
In the case of CCCOc1ccc([C@H]2[C@H](C(=O)O)[C@@H](c3ccc4c(c3)OCO4)CN2CC(=O)Nc2c(CC)cccc2CC)cc1 [A-192621], the residual activity [1] is reported as 100%, the residual activity [2] is reported as 55% and the residual activity [3] is reported as 97%. The residual activity [4] was 100%, the residual activity [5] was 100% and the residual activity [6] was 100%. For the same compound, the residual activity [7] was 100%, the residual activity [8] was 91% and the residual activity [9] was 93%. It also gave a residual activity [10] of 100%, a residual activity [11] of 93% and a % Inhibition of Control Values (Mean n=2) [12] of 29%. It also gave a residual activity [13] of 89%, a residual activity [14] of 98% and a residual activity [15] of 93%. The residual activity [16] was 86%, the residual activity [17] was 82% and the residual activity [18] was 68%. For the same compound, the residual activity [19] was 100%, the residual activity [20] was 58% and the % Inhibition of Control Specific Binding (Mean n=2) [21] was 33.5%. The residual activity [22] was 50%, the residual activity [23] was 93% and the residual activity [24] was 100%. It also gave a residual activity [25] of 82%, a residual activity [26] of 68% and a residual activity [27] of 76%. The residual activity [28] was 87%, the % Inhibition of Control Values (Mean n=2) [29] was 44% and the residual activity [30] was 96%. The residual activity [31] was 76%, the residual activity [32] was 92% and the residual activity [33] was 94%. For the same compound, the residual activity [34] was 94%, the residual activity [35] was 75% and the residual activity [36] was 73%. The residual activity [37] was 90%, the residual activity [38] was 69% and the residual activity [39] was 70%. It also gave a residual activity [40] of 93%, a % Inhibition of Control Specific Binding (Mean n=2) [41] of 36.7% and a residual activity [42] of 90%. The residual activity [43] was 82%, the residual activity [44] was 78% and the residual activity [45] was 82%.
